This note sets out measurements from US4080467A, “Pharmaceutical compositions comprising 1,3-dithiolan-2-ylidene malonate derivatives” (Nihon Nohyaku Co., Ltd., priority 1976, dated 1978).

The test system of data set [1] is Acute Liver Damage associated with Centrilobular Necrosis (carbon tetrachloride). Briefly: Protective effect on acute liver damage associated with centrilobular necrosis (carbon tetrachloride model). To be noted: 250 mg/kg oral 6 h before CCl4, average of 5 to 6 mice; for p-GPT (plasma glutamic-pyruvic transaminase activity): 24 h after CCl4, values over 1,000 regarded as 1,000; for Liver Damage Index: 0 normal, 2 slightly recognized, 4 clearly observable damage, 6 heavy damage. The class given is in vivo, mice (four-week-old male, dd strain). The text has this: Carbon tetrachloride (CCl4) administration induces centrilobular necrosis of the liver associated with loss of diphosphopyridine nucleotide, hepatic glycogen, coenzyme A and increase in neutral fat. Release of several enzymes from the hepatocytes, and increases of enzyme activities in the plasma are recognized as the result of the damage of the liver. A suitable means for evaluating the degree of damage induced by CCl4 or the degree of protection afforded by drugs is to study the plasma glutamic-pyruvic transaminase (p-GPT) activity.
Method: The test compounds were dissolved or suspended in olive oil and administered orally at the dose of 250 mg/kg to the mice (Four-week-old male mice-dd strain). After 6 hours, CCl4 was administered orally (0.05 ml/kg as olive oil solution). Animals were killed 24 hours after CCl4 administration, and the liver was grossly observed. The plasma was obtained by centrifugation. Activities of p-GPT were determined by the method of Reitman and Frankel and expressed in Karmen units.
Score for liver damage was as follows: […]
4 Clearly observable damage
Each figure indicates average of 5 to 6 mice. Values of p-GPT over 1,000 Karmen unit regarded as 1,000 for calculation of average for convenience.

Data set [2] concerns Chronic Liver Damage (thioacetamide). Put plainly: Therapeutic effect on chronic liver damage (thioacetamide model), BSP test. The class given is in vivo, rats (Sprague Dawley strain). To be noted: 12 times TAA 100 mg/kg, then diet + 0.2% compound. The procedure: In the tests of this Example, TAA was repeatedly administered to animals to prepare test animals suffering from somewhat chronic liver damages, and then the present compounds were administered thereto to know whether or not the compounds were effective against chronic hepatitis.
The degree of the liver damage and the therapeutic effects of the compounds were evaluated according to BSP test. The BSP test is a method in which BSP (sulfobromophthalein sodium), a dye known to be quickly metabolized in and excreted from the liver, is intravenously injected into animals and, after a definite period of time, the blood is taken out to measure the amount of BSP remaining in the plasma. In case the animals are suffering from the liver damage, the dye will remain, according to the degree of the damage, at the stage where a major portion of BSP is metabolized and excreted in the case of normal animals.
Five groups of rats (Sprague Dawley strain) were treated as follows:
Group A: The rats were orally administered with 100 mg/kg of thioacetamide,at 3 days intervals for 36 days (12 times of the administration), then were submitted for 10 days to a normal diet.
Group B: The rats were orally administered with 100 mg/kg of thioacetamide at 3 days intervals for 36 days (12 times of the administration), then were submitted for 10 days to the normal diet + 0.2% of compound 4.
Group C: The rats were orally administered with 100 mg/kg of thioacetamide at 3 days intervals for 36 days (12 times of the administration) then were submitted for 10 days to the normal diet + 0.2% of compound 2.
Group D: The rats were orally administered with 100 mg/kg of thioacetamide at 3 days intervals for 36 days (12 times of the administration) then were submitted for 10 days to the normal diet + 0.2% of anethol trithion.
Group E: The rats were submitted to the normal diet as the control.
Five rats were sacrified from each group at appropriate intervals for BSP (sulfobromophthalein) test, the results of which were shown as amounts (mg) of BSP remaining in 1 dl of plasma.

Data set [3] relates to acute liver damage associated with discrete lobular necrosis (D-galactosamine). Briefly: Protective effect on acute hepatitis with mesenchymal reaction and discrete lobular necrosis (D-galactosamine model). The class given is in vivo, male rat (SD strain). To be noted: 100 mg/kg oral 6 h before D-galactosamine. The procedure:
D-Galactosamine is a compound which induces a discrete lobular necrosis associated with mesenchymal reaction similar to the change observed in human viral hepatitis, so that it is frequently used in producing a model for viral hepatitis.
The compound of this invention or anethol trithion was administered orally to the male rat (SD strain) at the dose of 100 mg/kg. Six hours after it, D-galacetosamine was intraperitoneally administered at the dose of 600 mg/kg. Four hours after it, an additional 300 mg/kg was administered intraperitoneally. Eight hours after it, the animals were sacrificed to collect the blood samples. P-GPT activity and triglyceride in the liver were measured to evaluate the effect of the compound of this invention.

Data set [4] relates to bile flow and biliary salt. Put plainly: Cholagogic action: bile flow and excretion of biliary salt. The class given is in vivo, male rat (4 week-aged, SD-JCL strain). To be noted: 200 mg/kg oral; for bile flow / excretion of biliary salt: before treatment = 100. The procedure:
The male rat (4 week-aged, SD-JCL strain) was anesthetized with sodium pentobarbital (37.5 mg/kg, intraperitoneal injection). The abdominal cavity was opened through a midline incision. The common bile duct was catheterized with polyethylene tube o.d. 0.8 mm. The catheter was brought to the outside through the abdominal incision wound prior to closing. Bile was collected from the catheter continuously with time intervals of one hour. The quantity of bile produced in one hour was determined by weighing and that of biliary salt was determined by enzymatic method (Ikagaku Jikkenho Koza 1B, Biological Constituents II, edited by Tamio YAMAKAWA). The amount of biliary salts was represented as cholic acid equivalent.
In the representation of the results, the quantities of bile and biliary salts produced in one hour prior to the administration of drug were taken as 100. The compound of this invention was orally administered at the dose of 200 mg/kg. As reference anethol trithion was used.

Data set [5] in a line: Effect on concentration of ethyl alcohol in the blood. To be noted: 250 mg/kg oral 6 h before ethyl alcohol 1,000 mg/kg. The class given is in vivo, mice. As for the experimental part: The test compounds are dissolved or suspended in olive oil and administered orally at the dose of 250 mg/kg to the mice. After 6 hours, 1,000 mg/kg of ethyl alcohol was given orally. Blood was taken in a capillary from caudal vein at the time indicated in the results. The plasma was obtained by centrifugation. The concentration of ethyl alcohol in the plasma was measured by FID type gas liquid chromatography. Five mice were used for each group.

Data set [6] can be described thus: in vivo. To be noted: mouse, po.
For data set [7], the system named is fatty liver (carbon tetrachloride). Put plainly: Therapeutic effect on fatty liver (carbon tetrachloride model). The class given is in vivo, male rat (35 week-old, SD strain). The procedure:
Carbon tetrachloride also induces fatty liver, but the picture of disease differs from the case of ethionine-induced fatty liver. Carbon tetrachloride is generally considered to damage microsome and thereby to inhibit protein synthesis and induce fatty liver.
Carbon tetrachloride was subscutaneously administered to 35 week-old male rat (SD strain) for 4 days at the dose of 1 ml/kg. The treated animals were left for 3 days after the last administration to maximize the manifestation of fatty liver.
Administration of the compounds of this invention was commenced on the fourth day after the administration of carbon tetrachloride was completed. It was orally given everyday for 10 days at the dose of 50 or 250 mg/kg. On the 11th day, the animals were sacrificed. The therapeutic effect was evaluated by determining the content of lipid in the liver (triglyceride and total lipid) and examining the histopathological changes. Triglyceride and total lipid were determined colorimetrically by chromotropic acid method and Bragdon's oxidation method, respectively.
Indices for the histopathological change is as follows.

Data set [8] deals with fatty liver (ethionine). Put plainly: Effect on fatty liver (ethionine model). The class given is in vivo, male mice (4 week-old, dd-strain). To be noted: diet plus 0.2% ethionine and 0.2% compound, 5 days. An excerpt: There are known many factors inducing fatty liver. But, the fatty liver is grouped into a couple of patterns from the mechanism of lipid accumulation or metabolism of lipoprotein in the liver. Ethionine is a typical compound inducing fatty liver. It inhibits RNA and protein syntheses and destructs polysome of the liver cell. Fatty liver is induced by the inhibition of protein synthesis and the disturbance of lipoprotein secretion.
Usually, fatty liver is closely related to the accumulation of triglyceride in the liver. In the present example, the degree of fatty liver and protective or therapeutic effect against the fatty liver was evaluted by measurement of triglyceride content in the liver.
The animals used in the test were 4 week-old male mice (dd-strain).
The mice were submitted for 5 days to a normal diet (control), to the normal diet plus 0.2% ethionine (positive control), to the normal diet plus 0.2% ethionine and 0.2% of the compound of this invention, or to the normal diet plus 0.2% ethionine and 0.2% methionine which was the referential diet. At the end of the period of 5 days, content of triglyceride in the liver was studied colorimetrically by chromotropic acid method and the result was represented as triolein content (mg/g-liver).

The mark [9] stands for this setting: 50 mg/kg oral everyday for 10 days.
The mark [10] stands for this setting: 250 mg/kg oral everyday for 10 days.

Some results are limits rather than exact numbers.

As usually defined, the LD50 is the dose expected to kill half of the subjects tested. Low values mean greater toxicity, high ones lower toxicity. For the compound `CCOC(=O)C(C(=O)OCC)=C1SCCS1` [Compound 2, Diethyl 1,3-dithiolan-2-ylidene malonate], the “p-GPT (plasma glutamic-pyruvic transaminase activity)” value in data set [1] was 47 Karmen units. For the same compound, in data set [1], the “Liver Damage Index” value is recorded as 0.8. The “Concentration of BSP in plasma” value came out at 9.8 ± 3.1 mg/dL in data set [2] (2 Days), 4.7 ± 0.8 mg/dL in data set [2] (5 Days) and 0.8 ± 0.2 mg/dL in data set [2] (10 Days). In addition, the Triglyceride in liver in data set [3] turned out to be 7.2 ± 1.5 mg/g. The p-GPT in data set [3] stood at 68±32 Karmen unit. Moreover, the bile flow was determined as 108±3.8 in data set [4] (1 hour after treatment); 116±6.2 in data set [4] (2 hours after treatment); 109±8.3 in data set [4] (3 hours after treatment); 108±8.5 in data set [4] (4 hours after treatment); 98±3.8 in data set [4] (5 hours after treatment). Besides, the “excretion of biliary salt” value in data set [4] (1 hour after treatment) is 108±18; in data set [4] (2 hours after treatment), 120±12; in data set [4] (3 hours after treatment) it was 133±18; in data set [4] (4 hours after treatment), 120±21; in data set [4] (5 hours after treatment), 86±8.9. The “Amount of total biliary salts excreted for 5 hours relative to control” value in data set [4] (versus control) amounted to 1.63 times. Moreover, the “Quantity of total excreted bile for 5 hours relative to control” value in data set [4] (versus control) was determined as 1.15 times. The “Concentration of Ethyl alcohol in Plasma” value in data set [5] (0 min) worked out at 8±3 ppm; in data set [5] (5 min), 712±75 ppm; in data set [5] (15 min) it was 65±98 ppm; in data set [5] (30 min), 422±100 ppm; in data set [5] (60 min), 15±8 ppm. The compound also yielded an LD50 in data set [6] of 1110 mg/kg.

Turning to `CCOC(=O)C(C(=O)OC(C)C)=C1SCCS1` [Compound 21, Ethyl isopropyl 1,3-dithiolan-2-ylidene malonate], in data set [1], the “p-GPT (plasma glutamic-pyruvic transaminase activity)” value worked out at 64 Karmen units and the “Liver Damage Index” value is on record as 0.6. In data set [3], the Triglyceride in liver stood at 6.8 ± 1.2 mg/g and the p-GPT is recorded as 47±21 Karmen unit. In data set [7] (setting [9]), this compound had a Total lipid of 97.8 ± 10.3 mg/g-liver and a Triglyceride of 40.6 ± 6.8 mg/g-liver. Moreover, in data set [7] (setting [10]), the Total lipid is reported as 70.2 ± 8.3 mg/g-liver and the Triglyceride is 24.8 ± 3.2 mg/g-liver. The same compound gave a median lethal dose (LD50) in data set [6] of 2230 mg/kg.

As for `CC(C)OC(=O)C(C(=O)OC(C)C)=C1SCC[S+]1[O-]` (centres unmarked) [Compound 31, 2-(Diisopropoxycarbonyl)methyliden-1,3-dithiolan-1-oxide], the “p-GPT (plasma glutamic-pyruvic transaminase activity)” value in data set [1] amounted to 121 Karmen units. The “Liver Damage Index” value in data set [1] is on record as 0.8. For the same compound, the “Concentration of Ethyl alcohol in Plasma” value was 12±8 ppm in data set [5] (0 min); 720±145 ppm in data set [5] (5 min); 583±122 ppm in data set [5] (15 min); 343±13 ppm in data set [5] (30 min); 5±2 ppm in data set [5] (60 min). The compound also registered an LD50 in data set [6] above 6000 mg/kg.

Turning to `CSCC[C@H](N)C(=O)O` [Methionine, methionine, reference compound], the “Triglyceride (content in the liver, as triolein)” value in data set [8] was determined as 13.2 ± 2.1 mg/g. In data set [7] (setting [10]), the Total lipid is listed as 168.6 ± 21.6 mg/g-liver and the Triglyceride is recorded as 58.2 ± 9.6 mg/g-liver. In data set [7] (250 mg/kg oral, 10 days, one symbol per animal), the “Degree of fatty liver (histopathological examination)” value is “+ ± and ++ ++ ++ ±”. Also, the “therapeutic effect on fatty liver” value in data set [7] (carbon tetrachloride, in words) was “hardly exhibited a therapeutic effect”.
